# How the values were obtained:
# Olfr556 = biological target: T1, Olfr556 (Mus musculus, UniProt B2RRG2); experiment: OR transcript level by RT-qPCR after in vivo odorant exposure; set-up: from tissue; host or cells: main olfactory epithelium of exposed mice; key to olfr556 candidate OR (RNAseq) confirmed by qPCR: The transcript downregulation of 21 out of the 26 olfactory receptor candidates obtained by RNAseq was confirmed by qPCR; false RNAseq positive candidates, namely OR candidates for which in fact mRNA was not downregulated following acetophenone exposure; details: for Olfr556 mRNA level relative to unexposed controls: 5% odorant, 5 hours, in vivo, RT-qPCR
# T1 sequence (B2RRG2 1-324): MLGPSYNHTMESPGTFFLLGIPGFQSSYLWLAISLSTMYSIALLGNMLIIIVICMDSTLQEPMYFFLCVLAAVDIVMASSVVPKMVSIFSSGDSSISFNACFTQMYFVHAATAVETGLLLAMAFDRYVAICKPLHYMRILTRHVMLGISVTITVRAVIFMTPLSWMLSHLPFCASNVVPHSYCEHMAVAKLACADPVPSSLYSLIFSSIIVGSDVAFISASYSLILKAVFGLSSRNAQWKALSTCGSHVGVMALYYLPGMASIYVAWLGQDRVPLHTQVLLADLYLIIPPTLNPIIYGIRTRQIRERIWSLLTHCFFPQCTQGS
# Procedure: In vivo exposure to odorant: Starting 48 h before experiments, mice were habituated to pure DMSO on a cotton ball. 200 μl were pipetted directly onto the cotton and placed in the cage, replacing any cotton that was already in the cage for nest-making purposes.
# On the day of the experiment, mice receiving odorants were transferred to a different room, where they were exposed to a cotton ball on which 200 μl of odorant diluted in pure DMSO were deposited. […] […] If a number of different odorants were tested in the same experiment, a different overpressurized room would always be used for each odorant to avoid odor cross-contamination.
# After odorant exposure, mice were killed by cervical dislocation and immediately decapitated. The main olfactory epithelia (MOE), were harvested in their entirety and transferred to a tube containing 600 μl of lysis buffer and β-mercaptoethanol (RNAeasy kit, Qiagen, following the manufacturer protocol) and a 0.5 cm diameter steel ball, and then put on ice. Samples were then homogenized using a FastPrep®-24 instrument (MP Biomedicals) at 6 m/s for 30 s and left on ice. RNA extraction was performed on all samples in parallel using the Qiagen RNeasy Mini® kit following the manufacturer's instructions. Two DNase treatments were performed on all samples: first using the Qiagen RNase-Free DNase Set® and then using the Life Technologies Ambion DNase I® kit. RNA samples were then aliquoted and stored at −80° C.
# RNA concentrations were determined using an Amersham Ultrospec® 3100 Pro spectrophotometer, and RNA quality was evaluated with an Agilent Technologies 2100 Bioanalyzer®. Each reverse transcription was performed with 0.5 μg RNA using the Takara Primescript® kit, in a final volume of 10 μl. Primers for reverse transcription were equal mixtures of poly-T nucleotides and random hexamers. Negative controls (omitting the reverse transcriptase enzyme) were performed for each sample. 1/14th of the cDNA preparation was used for each triplicated qPCR reaction.
# qPCR Ct values were analyzed using an in-house developed Microsoft Excel® macro file. Triplicate values were compared and outliers (values with a difference higher than 0.5 Ct to their nearest neighbor) were discarded. The number of conditions with an outlying value was always less than 10% of the total number of conditions. Ct values were converted to quantities relative to the maximum for each given gene. Selected reference genes were then analyzed for variance using the geNorm algorithm. All values were normalized with the olfactory tissue-specific genes Omp and Adcy3. β-Actin was used as a non-tissue-specific reference gene to control for differences in dissection between samples. […]
# OSNs expressing olfr935 = experiment: pS6 immunolabeling with OR in situ hybridization after odorant exposure; format: in vivo, mouse; details: 5% acetophenone, 60 minutes
# Procedure: (§1) In order to independently validate the identity of an acetophenone receptor obtained with the RNAseq approach, the potential colocalization following acetophenone exposure of a neuronal activity marker (the phosphorylated ribosomal protein S6 (pS6) (Knight et al., 2012, Cell, 151, 1126-1137) and specific olfactory receptors were evaluated. To this aim, in-situ hybridizations were performed on sections of olfactory tissue with probes targeting receptor mRNAs followed by immunolabeling of pS6. The probes used were directed against the transcripts of most of the ORs determined as responsive including Olfr983 transcripts (encoding a known acetophenone receptor), Olfr171 transcripts (encoding a known ethyl isobutyrate receptor), and Olfr145 transcripts, encoding a newly identified receptor by RNAseq. Before analysis, mice were exposed to either 5% acetophenone, 5% ethyl isobutyrate, or a negative control condition for 60 minutes. […] 66% (Olfr983) and 70% (Olfr145) of the neurons were positive for pS6 after acetophenone exposure, while only 11% of the neurons expressing Olfr171 were positive for pS6 after exposure to this compound.
# OSNs expressing olfr109 = experiment: as above; format: in vivo, mouse; details: 5% acetophenone, 60 minutes
# Procedure: as §1
# OSNs expressing olfr30 = experiment: as above; format: in vivo, mouse; details: 5% acetophenone, 60 minutes
# Procedure: as §1
# OSNs expressing olfr922 = experiment: as above; format: in vivo, mouse; details: 5% acetophenone, 60 minutes
# Procedure: as §1
# OSNs expressing olfr160 = experiment: as above; format: in vivo, mouse; details: 5% acetophenone, 60 minutes
# Procedure: as §1
# [1] = test system: neurons expressing Olfr145; experiment: as above; format: in vivo, mouse; details: 60 minutes
# Procedure: as §1
# OSNs expressing olfr478 = experiment: as above; format: in vivo, mouse; details: 5% acetophenone, 60 minutes
# Procedure: as §1
# OSNs expressing olfr901 = experiment: as above; format: in vivo, mouse; details: 5% acetophenone, 60 minutes
# Procedure: as §1
# OSNs expressing olfr745 = experiment: as above; format: in vivo, mouse; details: 5% acetophenone, 60 minutes
# Procedure: as §1
# OSNs expressing olfr1377 = experiment: as above; format: in vivo, mouse; details: 5% acetophenone, 60 minutes
# Procedure: as §1
# OSNs expressing olfr143 = experiment: as above; format: in vivo, mouse; details: 5% acetophenone, 60 minutes
# Procedure: as §1
# [2] = test system: neurons expressing Olfr983; experiment: as above; format: in vivo, mouse; details: 60 minutes
# Procedure: as §1
structure (smiles),measurement,setting,value
CC(=O)c1ccccc1 [acetophenone],olfr556 candidate OR (RNAseq) confirmed by qPCR,Olfr556; 5% acetophenone exposure,y
same,Olfr556 mRNA level relative to unexposed controls,Olfr556,decrease
same,Olfr556 mRNA level relative to unexposed controls,Olfr556; listed as Acetophenone,downregulates
same,olfr935 ps6 positive,OSNs expressing olfr935,y (neuronal activation (i.e. pS6 signal in a fraction of neuron exceeding 15% relative to controls))
same,olfr109 ps6 positive,OSNs expressing olfr109,y (neuronal activation (i.e. pS6 signal in a fraction of neuron exceeding 15% relative to controls))
same,olfr30 ps6 positive,OSNs expressing olfr30,y (neuronal activation (i.e. pS6 signal in a fraction of neuron exceeding 15% relative to controls))
same,olfr922 ps6 positive,OSNs expressing olfr922,y (neuronal activation (i.e. pS6 signal in a fraction of neuron exceeding 15% relative to controls))
same,olfr160 ps6 positive,OSNs expressing olfr160,y (neuronal activation (i.e. pS6 signal in a fraction of neuron exceeding 15% relative to controls))
same,olfr145 ps6 positive,[1]; 5% acetophenone,y (neuronal activation (i.e. pS6 signal in a fraction of neuron exceeding 15% relative to controls))
same,fraction of Olfr145-expressing neurons positive for pS6,"[1]; 5% odorant, in vivo",70%
same,olfr478 ps6 positive,OSNs expressing olfr478,y (neuronal activation (i.e. pS6 signal in a fraction of neuron exceeding 15% relative to controls))
same,olfr901 ps6 positive,OSNs expressing olfr901,y (neuronal activation (i.e. pS6 signal in a fraction of neuron exceeding 15% relative to controls))
same,olfr745 ps6 positive,OSNs expressing olfr745,y (neuronal activation (i.e. pS6 signal in a fraction of neuron exceeding 15% relative to controls))
same,olfr1377 ps6 positive,OSNs expressing olfr1377,y (neuronal activation (i.e. pS6 signal in a fraction of neuron exceeding 15% relative to controls))
same,olfr143 ps6 positive,OSNs expressing olfr143,y (neuronal activation (i.e. pS6 signal in a fraction of neuron exceeding 15% relative to controls))
same,olfr983 ps6 positive,[2]; 5% acetophenone,y (neuronal activation (i.e. pS6 signal in a fraction of neuron exceeding 15% relative to controls))
same,fraction of Olfr983-expressing neurons positive for pS6,"[2]; 5% odorant, in vivo",66%

# Source: patent US10473645B2, “Methods for identifying a receptor for a ligand and uses thereof” (UNIVERSITE DE GENEVE, priority 2014, dated 2019)
